In patent US9695155B2, “Herbicidal substituted pyrimidinyloxy benzene compounds” (E. I. DU PONT DE NEMOURS AND COMPANY, priority 2013, dated 2017):

Experiments:
large (Lg) crabgrass = assay: Test A preemergence; type: in vivo, Digitaria sanguinalis; conditions: Digitaria sanguinalis, pre-emergence, 240 h; for pest or weed control at 125 g/ha: 125 g ai/ha, 0 to 100 scale where 0 is no effect and 100 is complete control, read-out: Plant response rating, Crabgrass, Large; for pest or weed control at 500 g/ha: 500 g ai/ha, 0 to 100 scale, 0 no effect, 100 complete control, approx. 10 days, read-out: Crabgrass, Large plant response rating
In short: (§1)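 Pre- and postemergence greenhouse screen. Soil: loam + sand. Spray carrier: solvent mixture, non-phytotoxic, with surfactant. Post timing at 1–2 leaves, height 2–10 cm. Readout: visual injury on a 0–100 scale roughly 10 days after application, untreated plants as reference.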

waterhemp = assay: Test C preemergence; type: in vivo, Amaranthus rudis; conditions: Amaranthus tuberculatus, pre-emergence; for pest or weed control at 62 g/ha: 62 g ai/ha; for pest or weed control at 62 g/ha / pest or weed control at 125 g/ha / pest or weed control at 250 g/ha: preemergence, scale 0 (no effect) to 100 (complete control), read-out: Waterhemp plant response rating; for pest or weed control at 125 g/ha: 125 g ai/ha; for pest or weed control at 250 g/ha: 250 g ai/ha; for pest or weed control at 31 g/ha: Preemergence, 31 g ai/ha, scale 0 to 100, 0 no effect, 100 complete control, read-out: Plant response rating, Waterhemp
In short: (§2)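 Rated visually on 0–100 (100 = complete control) after 13–15 days under glass. Treatments went onto freshly seeded loam/sand soil or onto emerged plants at the 1- to 4-leaf stage, using a surfactant-containing solvent formulation.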

wheat, winter = assay: Test C preemergence; type: in vivo, Triticum aestivum; conditions: Triticum aestivum, pre-emergence; for plant injury at 62 g/ha: 62 g ai/ha; for plant injury at 62 g/ha / plant injury at 125 g/ha / plant injury at 250 g/ha: preemergence, scale 0 (no effect) to 100 (complete control), read-out: Wheat plant response rating; for plant injury at 125 g/ha: 125 g ai/ha; for plant injury at 250 g/ha: 250 g ai/ha; for plant injury at 31 g/ha: Preemergence, 31 g ai/ha, scale 0 to 100, 0 no effect, 100 complete control, read-out: Plant response rating, Wheat
In short: as §2

galium = assay: Test C preemergence; type: in vivo, Galium aparine; conditions: Galium, pre-emergence; for pest or weed control at 62 g/ha: 62 g ai/ha; for pest or weed control at 62 g/ha / pest or weed control at 125 g/ha / pest or weed control at 250 g/ha: preemergence, scale 0 (no effect) to 100 (complete control), read-out: Galium plant response rating; for pest or weed control at 125 g/ha: 125 g ai/ha; for pest or weed control at 250 g/ha: 250 g ai/ha; for pest or weed control at 31 g/ha: Preemergence, 31 g ai/ha, scale 0 to 100, 0 no effect, 100 complete control, read-out: Plant response rating, Galium
In short: as §2

morningglory [1] = assay: Test C postemergence; type: in vivo, Ipomoea coccinea; conditions: Ipomoea, post-emergence; for pest or weed control at 125 g/ha: 125 g ai/ha; for pest or weed control at 125 g/ha / pest or weed control at 250 g/ha: postemergence, read-out: Plant response rating (0 to 100), Morningglory; for pest or weed control at 250 g/ha: 250 g ai/ha; for pest or weed control at 31 g/ha / pest or weed control at 62 g/ha: Postemergence, scale 0 to 100 (0 no effect, 100 complete control), read-out: Plant response rating, Morningglory; for pest or weed control at 31 g/ha: 31 g ai/ha, 13 to 15 days; for pest or weed control at 62 g/ha: 62 g ai/ha
In short: as §2

wheat = assay: Test A postemergence; type: in vivo, Triticum aestivum; conditions: Triticum aestivum, post-emergence, 240 h; for plant injury at 125 g/ha: 125 g ai/ha, 0 to 100 scale where 0 is no effect and 100 is complete control, read-out: Plant response rating, Wheat; for plant injury at 500 g/ha: 500 g ai/ha, 0 to 100 scale, 0 no effect, 100 complete control, read-out: Plant response rating Wheat
In short: as §1

blackgrass = assay: Test C preemergence; type: in vivo, Alopecurus myosuroides; conditions: Alopecurus myosuroides, pre-emergence; for pest or weed control at 62 g/ha: 62 g ai/ha; for pest or weed control at 62 g/ha / pest or weed control at 125 g/ha / pest or weed control at 250 g/ha: preemergence, scale 0 (no effect) to 100 (complete control), read-out: Blackgrass plant response rating; for pest or weed control at 125 g/ha: 125 g ai/ha; for pest or weed control at 250 g/ha: 250 g ai/ha; for pest or weed control at 31 g/ha: Preemergence, 31 g ai/ha, scale 0 to 100, 0 no effect, 100 complete control, read-out: Plant response rating, Blackgrass
In short: as §2

Heteranthera limosa = assay: Test B flooded paddy test; type: in vivo; conditions: Heteranthera limosa, Flood, 250 g ai/ha; 0 to 100 scale where 0 is no effect and 100 is complete control; read-out: Plant response rating, Ducksalad
In short: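 Post-emergence paddy-water application at the 2-leaf stage, with 3 cm flood kept for the whole test. Response was judged visually relative to controls after 13 to 15 greenhouse days, 0 indicating no effect and 100 complete control.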

morningglory [2] = assay: Test C preemergence; type: in vivo, Ipomoea coccinea; conditions: Ipomoea, pre-emergence; for pest or weed control at 62 g/ha: 62 g ai/ha; for pest or weed control at 62 g/ha / pest or weed control at 125 g/ha / pest or weed control at 250 g/ha: preemergence, scale 0 (no effect) to 100 (complete control), read-out: Morningglory plant response rating; for pest or weed control at 125 g/ha: 125 g ai/ha; for pest or weed control at 250 g/ha: 250 g ai/ha; for pest or weed control at 31 g/ha: Preemergence, 31 g ai/ha, scale 0 to 100, 0 no effect, 100 complete control, read-out: Plant response rating, Morningglory
In short: as §2

Italian ryegrass = assay: Test C preemergence; type: in vivo, Lolium multiflorum; conditions: Lolium multiflorum, pre-emergence; for pest or weed control at 62 g/ha: 62 g ai/ha; for pest or weed control at 62 g/ha / pest or weed control at 125 g/ha / pest or weed control at 250 g/ha: preemergence, scale 0 (no effect) to 100 (complete control), read-out: Ryegrass, Italian plant response rating; for pest or weed control at 125 g/ha: 125 g ai/ha; for pest or weed control at 250 g/ha: 250 g ai/ha; for pest or weed control at 31 g/ha: Preemergence, 31 g ai/ha, scale 0 to 100, 0 no effect, 100 complete control, read-out: Plant response rating, Ryegrass, Italian
In short: as §2

barnyardgrass = assay: Test A postemergence; type: in vivo, Echinochloa crus-galli; conditions: Echinochloa crus-galli, post-emergence, 240 h; for pest or weed control at 125 g/ha: 125 g ai/ha, 0 to 100 scale where 0 is no effect and 100 is complete control, read-out: Plant response rating, Barnyardgrass; for pest or weed control at 500 g/ha: 500 g ai/ha, 0 to 100 scale, 0 no effect, 100 complete control, read-out: Plant response rating Barnyardgrass
In short: as §1

## N#Cc1cccc(Oc2ncc(Cl)cn2)c1-n1cc(C(F)(F)F)cn1 [Compound 58, 3-[(5-chloro-2-pyrimidinyl)oxy]-2-[4-(trifluoromethyl)-1H-pyrazol-1-yl]benzonitrile]
Large (Lg) crabgrass
  pest or weed control at 125 g/ha: 100%
  pest or weed control at 500 g/ha: 100%
waterhemp
  pest or weed control at 62 g/ha: 100%
  pest or weed control at 125 g/ha: 100%
  pest or weed control at 250 g/ha: 100%
  pest or weed control at 31 g/ha: 100%
wheat, winter
  plant injury at 62 g/ha: 80%
  plant injury at 125 g/ha: 80%
  plant injury at 250 g/ha: 90%
  plant injury at 31 g/ha: 45%
galium
  pest or weed control at 62 g/ha: 100%
  pest or weed control at 125 g/ha: 100%
  pest or weed control at 250 g/ha: 100%
  pest or weed control at 31 g/ha: 100%
Morningglory [1]
  pest or weed control at 125 g/ha: 98%
  pest or weed control at 250 g/ha: 98%
  pest or weed control at 31 g/ha: 80%
  pest or weed control at 62 g/ha: 95%
wheat
  plant injury at 125 g/ha: 90%
  plant injury at 500 g/ha: 100%
blackgrass
  pest or weed control at 62 g/ha: 90%
  pest or weed control at 125 g/ha: 90%
  pest or weed control at 250 g/ha: 90%
  pest or weed control at 31 g/ha: 90%
Heteranthera limosa
  pest or weed control at 250 g/ha: 90%
Morningglory [2]
  pest or weed control at 62 g/ha: 100%
  pest or weed control at 125 g/ha: 100%
  pest or weed control at 250 g/ha: 100%
  pest or weed control at 31 g/ha: 100%
Italian ryegrass
  pest or weed control at 62 g/ha: 90%
  pest or weed control at 125 g/ha: 90%
  pest or weed control at 250 g/ha: 90%
  pest or weed control at 31 g/ha: 90%
barnyardgrass
  pest or weed control at 125 g/ha: 100%
  pest or weed control at 500 g/ha: 100%

## N#Cc1cccc(Oc2ncc(Br)cn2)c1-n1cc(C(F)(F)F)cn1 [Compound 59, 3-[(5-bromo-2-pyrimidinyl)oxy]-2-[4-(trifluoromethyl)-1H-pyrazol-1-yl]benzonitrile]
Large (Lg) crabgrass
  pest or weed control at 125 g/ha: 100%
  pest or weed control at 500 g/ha: 100%
waterhemp
  pest or weed control at 62 g/ha: 100%
  pest or weed control at 125 g/ha: 100%
  pest or weed control at 250 g/ha: 100%
  pest or weed control at 31 g/ha: 100%
wheat, winter
  plant injury at 62 g/ha: 50%
  plant injury at 125 g/ha: 85%
  plant injury at 250 g/ha: 90%
  plant injury at 31 g/ha: 0%
galium
  pest or weed control at 62 g/ha: 100%
  pest or weed control at 125 g/ha: 100%
  pest or weed control at 250 g/ha: 100%
  pest or weed control at 31 g/ha: 100%
Morningglory [1]
  pest or weed control at 125 g/ha: 95%
  pest or weed control at 250 g/ha: 95%
  pest or weed control at 31 g/ha: 80%
  pest or weed control at 62 g/ha: 85%
wheat
  plant injury at 125 g/ha: 70%
  plant injury at 500 g/ha: 100%
blackgrass
  pest or weed control at 62 g/ha: 85%
  pest or weed control at 125 g/ha: 90%
  pest or weed control at 250 g/ha: 90%
  pest or weed control at 31 g/ha: 5%
Heteranthera limosa
  pest or weed control at 250 g/ha: 80%
Morningglory [2]
  pest or weed control at 62 g/ha: 100%
  pest or weed control at 125 g/ha: 100%
  pest or weed control at 250 g/ha: 100%
  pest or weed control at 31 g/ha: 95%
Italian ryegrass
  pest or weed control at 62 g/ha: 85%
  pest or weed control at 125 g/ha: 90%
  pest or weed control at 250 g/ha: 90%
  pest or weed control at 31 g/ha: 50%
barnyardgrass
  pest or weed control at 125 g/ha: 100%
  pest or weed control at 500 g/ha: 100%
